pIC50: −log10 of the molar value.
Key:
[1] = system: MOLM-13 cells (human acute myeloid leukemia cells); experiment: MOLM-13 Cellular Assay; format: cell-based; conditions: 72 hours exposure, cell viability by CellTiter-Glo
Method: The following assay is referred to herein as the “MOLM-13 Cellular Assay.” MOLM-13 cells (human acute myeloid leukemia cells) were obtained from DSMZ and were maintained in RPMI 1640+Glutamax+25 mM HEPES (Invitrogen, catalog number 72400) supplemented with 10% heat inactivated fetal bovine serum (FBS; Invitrogen, catalog number 16140). The day prior to assay set-up, cells were pelleted, resuspended in fresh media, counted, and cells were plated at 0.4×10^6 cell/mL in a T150 flask. On the day of the assay, cells were pelleted, resuspend in fresh media, counted and seeded at 5,000 cells/well in white opaque 96-well tissue culture treated microplates (Perkin Elmer, catalog number 6005680). Cells were exposed to different concentrations of test compounds at 37° C., 5% CO2 for 72 hours immediately after seeding. Cell viability was acquired on a Perkin Elmer Envision 2104 multilabel reader using the CellTiter-Glo assay (Promega) according to the manufacturer's instructions.

human DHODH = human DHODH (Homo sapiens (Human), UniProt Q02127); experiment: DHODH Enzymatic Assay; format: biochemical; conditions: purified human DHODH, DCIP absorbance, end-point mode; read-out: hDHODH IC50
Chain of human DHODH (Q02127 whole entry): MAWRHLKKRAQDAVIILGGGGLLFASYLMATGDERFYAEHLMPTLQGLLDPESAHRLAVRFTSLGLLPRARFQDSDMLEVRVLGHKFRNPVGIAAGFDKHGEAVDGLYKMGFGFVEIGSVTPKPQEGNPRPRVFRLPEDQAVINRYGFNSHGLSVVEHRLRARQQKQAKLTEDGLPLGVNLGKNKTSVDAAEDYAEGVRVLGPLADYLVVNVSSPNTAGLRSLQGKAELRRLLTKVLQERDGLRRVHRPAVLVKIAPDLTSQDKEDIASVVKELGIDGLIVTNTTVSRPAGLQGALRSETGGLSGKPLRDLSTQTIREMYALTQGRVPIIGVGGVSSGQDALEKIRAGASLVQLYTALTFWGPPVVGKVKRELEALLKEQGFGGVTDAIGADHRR
Method: The following assay is referred to herein as the “DHODH Enzymatic Assay.” To detect DHODH enzyme activities, dichloroindophenol (DCIP) is added as the final electron acceptor in the assay. DCIP can accept electrons from the reduced coenzyme Q generated in the assay, or from dihydroorotate (DHO) via FMN by binding presumably to the ubiquinone pocket. DCIP solutions are blue, with an intense absorbance around 600 nm, but becomes colorless upon reduction (J. Biol. Chem. (1986) 261, 11386). The assay buffer contained […], pH 7.5, 150 mM NaCl, 0.5 mM EDTA, and 0.1% Triton X-100 in MilliQ water. Substrate consisting of 20 mM DHO, 5 mM CoQ6, and 1 mM DCIP in assay buffer, initiates the reaction. The assay is run in end-point mode by quenching the reaction with the potent DHODH inhibitor brequinar. Absorbance measurements were obtained using the BMG Phera Star plate-reading spectrophotomer. Purified human DHODH was purchased from Proteros (cat. No. PR-0044). Chemicals were purchased from Sigma-Aldrich, Teknova, and Avanti Polar Lipids. Liquid handling was performed using Labcyte Echo and Formulatrix Tempest.

SMILES | pIC50 [1] | pIC50 ([1]; Homo sapiens, MOLM-13, 72 h) | pIC50 (human DHODH)
C=C(C)c1cn(-c2c(F)ccc(OC)c2Cl)c(=O)c2cc(F)c(-n3nc(CO)n(CC)c3=O)cc12 [Example 51, 2-(2-Chloro-6-fluoro-3-methoxyphenyl)-6-(4-ethyl-3-(hydroxymethyl)-5-oxo-4,5-dihydro-1H-1,2,4-triazol-1-yl)-7-fluoro-4-(prop-1-en-2-yl)isoquinolin-1(2H)-one] | 10.00 | ≥ 9.70 | 9.57
C=C(C)c1cn(-c2c(C)n[nH]c2Cl)c(=O)c2cc(F)c(-n3nc(CO)n(CC)c3=O)cc12 [Example 60, 2-(5-Chloro-3-methyl-1H-pyrazol-4-yl)-6-(4-ethyl-3-(hydroxymethyl)-5-oxo-4,5-dihydro-1H-1,2,4-triazol-1-yl)-7-fluoro-4-(prop-1-en-2-yl)isoquinolin-1(2H)-one] | – | 8.40 | 9.54
CCn1c(CO)nn(-c2cc3c(C(C)C)cn(-c4c(F)cccc4Cl)c(=O)c3cc2F)c1=O [Example 11, 2-(2-Chloro-6-fluorophenyl)-6-(4-ethyl-3-(hydroxymethyl)-5-oxo-4,5-dihydro-1H-1,2,4-triazol-1-yl)-7-fluoro-4-isopropylisoquinolin-1(2H)-one] | 9.70 | ≥ 9.70 | 9.65
CCn1c(CO)nn(-c2cc3c(C(C)C)cn([C@H]4CCC[C@@H]4C)c(=O)c3cc2F)c1=O (stereo in doubt) [Example 124, 6-(4-Ethyl-3-(hydroxymethyl)-5-oxo-4,5-dihydro-1H-1,2,4-triazol-1-yl)-7-fluoro-4-isopropyl-2-((1S*,2S*)-2-methylcyclopentyl)isoquinolin-1(2H)-one] | – | 9.05 | 8.87
CCC(COC)n1cc(C(C)C)c2cc(-n3nc(CO)n(CC)c3=O)c(F)cc2c1=O (centres unmarked) [Example 116, 6-(4-Ethyl-3-(hydroxymethyl)-5-oxo-4,5-dihydro-1H-1,2,4-triazol-1-yl)-7-fluoro-4-isopropyl-2-(1-methoxybutan-2-yl)isoquinolin-1(2H)-one] | – | 7.70 | 7.51
CCn1c(CO)nn(-c2cc3c(C4(C)CC4)cn(-c4c(F)cccc4Cl)c(=O)c3cc2F)c1=O [Example 58, 2-(2-Chloro-6-fluorophenyl)-6-(4-ethyl-3-(hydroxymethyl)-5-oxo-4,5-dihydro-1H-1,2,4-triazol-1-yl)-7-fluoro-4-(1-methylcyclopropyl)isoquinolin-1(2H)-one] | – | 8.40 | 8.06
CCn1c(CO)nn(-c2cc3c(C(C)C)cn(C4CCCC4)c(=O)c3cc2F)c1=O [Example 109, 2-Cyclopentyl-6-(4-ethyl-3-(hydroxymethyl)-5-oxo-4,5-dihydro-1H-1,2,4-triazol-1-yl)-7-fluoro-4-isopropylisoquinolin-1(2H)-one] | – | 8.05 | 8.27
CCn1c(CO)nn(-c2cc3c(C(C)C)cn(-c4cc(C)ncc4C)c(=O)c3cc2F)c1=O [Example 135, 2-(2,5-Dimethylpyridin-4-yl)-6-(4-ethyl-3-(hydroxymethyl)-5-oxo-4,5-dihydro-1H-1,2,4-triazol-1-yl)-7-fluoro-4-isopropylisoquinolin-1(2H)-one] | – | 7.30 | 8.16
C=C(C)c1nn(-c2c(F)cccc2Cl)c(=O)c2cc(F)c(-n3nc(CO)n(CC)c3=O)cc12 [Example 27, 2-(2-Chloro-6-fluorophenyl)-6-(4-ethyl-3-(hydroxymethyl)-5-oxo-4,5-dihydro-1H-1,2,4-triazol-1-yl)-7-fluoro-4-(prop-1-en-2-yl)phthalazin-1(2H)-one] | – | – | 9.49
C=C(C)c1nn(-c2c(F)cccc2Cl)c(=O)c2cc(-n3nc(CO)n(CC)c3=O)c(OC)cc12 [Example 30, 2-(2-Chloro-6-fluorophenyl)-7-(4-ethyl-3-(hydroxymethyl)-5-oxo-4,5-dihydro-1H-1,2,4-triazol-1-yl)-6-methoxy-4-(prop-1-en-2-yl)phthalazin-1(2H)-one] | – | – | 5.46
CCn1c(CO)nn(-c2cc3c(C(C)C)cn(-c4nc(C)ccc4C)c(=O)c3cc2F)c1=O [Example 134, 2-(3,6-Dimethylpyridin-2-yl)-6-(4-ethyl-3-(hydroxymethyl)-5-oxo-4,5-dihydro-1H-1,2,4-triazol-1-yl)-7-fluoro-4-isopropylisoquinolin-1(2H)-one] | – | 8.10 | –
C=C(C)c1nn(-c2c(F)cccc2Cl)c(=O)c2cc(OC)c(-n3nc(CO)n(CC)c3=O)cc12 [Example 29, 2-(2-Chloro-6-fluorophenyl)-6-(4-ethyl-3-(hydroxymethyl)-5-oxo-4,5-dihydro-1H-1,2,4-triazol-1-yl)-7-methoxy-4-(prop-1-en-2-yl)phthalazin-1(2H)-one] | – | – | 7.08
CCn1c(CO)nn(-c2cc3c(C(C)C)cn(-c4cccnc4OC)c(=O)c3cc2F)c1=O [Example 90, 6-(4-Ethyl-3-(hydroxymethyl)-5-oxo-4,5-dihydro-1H-1,2,4-triazol-1-yl)-7-fluoro-4-isopropyl-2-(2-methoxypyridin-3-yl)isoquinolin-1(2H)-one] | – | – | 7.68
C=C(C)c1nn(-c2c(F)cccc2Cl)c(=O)c2cc(-n3nc(CO)n(CC)c3=O)c(F)cc12 [Example 28, 2-(2-Chloro-6-fluorophenyl)-7-(4-ethyl-3-(hydroxymethyl)-5-oxo-4,5-dihydro-1H-1,2,4-triazol-1-yl)-6-fluoro-4-(prop-1-en-2-yl)phthalazin-1(2H)-one] | – | – | 8.30

The remaining lines, values ahead:

pIC50 [1] | pIC50 ([1]; Homo sapiens, MOLM-13, 72 h) | pIC50 (human DHODH) | SMILES
– | 9.52 | 9.13 | C=C(C)c1cn(-c2ccccc2C)c(=O)c2cc(F)c(-n3nc(CO)n(CC)c3=O)cc12 [Example 46, 6-(4-Ethyl-3-(hydroxymethyl)-5-oxo-4,5-dihydro-1H-1,2,4-triazol-1-yl)-7-fluoro-4-(prop-1-en-2-yl)-2-(o-tolyl)isoquinolin-1(2H)-one]
– | 9.40 | 9.21 | [2H]C([2H])([2H])c1ccccc1-n1cc(C(C)C)c2nc(-n3nc(CO)n(CC)c3=O)c(F)cc2c1=O [Example 142, 2-(4-Ethyl-3-(hydroxymethyl)-5-oxo-4,5-dihydro-1H-1,2,4-triazol-1-yl)-3-fluoro-8-isopropyl-6-(o-D3-tolyl)-1,6-naphthyridin-5(6H)-one]
– | 9.30 | 9.34 | CCn1c(CO)nn(-c2cc3c(C(C)C)cn(-c4ccc(F)cc4C)c(=O)c3cc2F)c1=O [Example 64, 6-(4-Ethyl-3-(hydroxymethyl)-5-oxo-4,5-dihydro-1H-1,2,4-triazol-1-yl)-7-fluoro-2-(4-fluoro-2-methylphenyl)-4-isopropylisoquinolin-1(2H)-one]
– | 9.52 | – | CCn1c(CO)nn(-c2cc3c(C(C)C)cn(-c4ccccc4Cl)c(=O)c3cc2F)c1=O [Example 117, 2-(2-Chlorophenyl)-6-(4-ethyl-3-(hydroxymethyl)-5-oxo-4,5-dihydro-1H-1,2,4-triazol-1-yl)-7-fluoro-4-isopropylisoquinolin-1(2H)-one]
– | 7.52 | 7.09 | CCn1c(CO)nn(-c2ccc3c(=O)n(-c4cccc(F)c4)nc(C(C)C)c3c2)c1=O [Example 18, 6-(4-Ethyl-3-(hydroxymethyl)-5-oxo-4,5-dihydro-1H-1,2,4-triazol-1-yl)-2-(3-fluorophenyl)-4-isopropylphthalazin-1(2H)-one]
– | 7.70 | 7.33 | CCn1c(CO)nn(-c2ccc3c(=O)n(-c4ccccc4C)cc(N(C)C)c3c2)c1=O [Example 26, 4-(Dimethylamino)-6-(4-ethyl-3-(hydroxymethyl)-5-oxo-4,5-dihydro-1H-1,2,4-triazol-1-yl)-2-(o-tolyl)isoquinolin-1(2H)-one]
– | 8.70 | – | CCn1c(CO)nn(-c2nc3c(C(C)C)cn(-c4ccccc4C(F)(F)F)c(=O)c3cc2F)c1=O [Example 133, 2-(4-Ethyl-3-(hydroxymethyl)-5-oxo-4,5-dihydro-1H-1,2,4-triazol-1-yl)-3-fluoro-8-isopropyl-6-(2-(trifluoromethyl)phenyl)-1,6-naphthyridin-5(6H)-one]
– | – | 5.37 | CCn1c(CO)nn(-c2ccc3c(=O)n(-c4cccc(F)c4)cc(C(C)(C)O)c3c2)c1=O [Example 25, 6-(4-Ethyl-3-(hydroxymethyl)-5-oxo-4,5-dihydro-1H-1,2,4-triazol-1-yl)-2-(3-fluorophenyl)-4-(2-hydroxypropan-2-yl)isoquinolin-1(2H)-one]
– | – | 9.60 | C=C(C)c1cn(-c2cc(F)ccc2C)c(=O)c2cc(F)c(-n3nc(CO)n(CC)c3=O)cc12 [Example 82, 6-(4-Ethyl-3-(hydroxymethyl)-5-oxo-4,5-dihydro-1H-1,2,4-triazol-1-yl)-7-fluoro-2-(5-fluoro-2-methylphenyl)-4-(prop-1-en-2-yl)isoquinolin-1(2H)-one]

From patent publication US11505536B2, “Dihydroorotate dehydrogenase inhibitors” (Janssen Biotech, Inc., priority 2019, dated 2022)
